Laboratory results as given in patent publication US8119614B2, “Substitution derivatives of N6-benzyladenosine, methods of their preparation, their use for preparation of drugs, cosmetic preparations and growth regulators, pharmaceutical preparations, cosmetic preparations and growth regulators containing these compounds” (Ustav Experimentalni Botaniky Akademie Ved Ceske Republiky, priority 2002, dated 2012).
pIC50: −log10 of the molar value.

Columns and labels:
HOS = experiment: In vitro cytotoxic activity, Calcein AM assay, HOS; type: cell-based; conditions: 72 hours
[1] = tested on: human erythroleukaemia K562; experiment: In vitro cytotoxic activity, Calcein AM assay, K-562; type: cell-based; conditions: 72 hours, read-out: IC 50 K-562
From the text: (§1) One of the parameters used, as the basis for cytotoxicity assays, is the metabolic activity of viable cells. For example, a microtiter assay, which uses the Calcein AM, is now widely used to quantitate cell proliferation and cytotoxicity. For instance, this assay is used in drug screening programs and in chemosensitivity testing. Because only metabolically active cells cleave Calcein AM, these assays detect viable cells exclusively. The quantity of reduced Calcein AM corresponds to the number of vital cells in the culture.
(§2) Human T-lymphoblastic leukemia cell line CEM; promyelocytic HL-60 and monocytic U937 leukemias; breast carcinoma cell lines MCF-7; cervical carcinoma cells HELA; mouse fibroblasts NIH3T3; human erythroleukaemia K562 and human malignant melanoma cells G361 were used for routine screening of compounds. The cells were maintained in Nunc/Corning 80 cm^2 plastic tissue culture flasks and cultured in cell culture medium (DMEM with 5 g/l glucose, 2 mM glutamine, 100 U/ml penicillin, 100 μg/ml streptomycin, 10% fetal calf serum and sodium bicarbonate).
(§3) The cell suspensions that were prepared and diluted according to the particular cell type and the expected target cell density (10^4 cells per well based on cell growth characteristics) were added by pipette (80 μl) into 96/well microtiter plates. Inoculates were allowed a pre-incubation period of 24 hours at 37° C. and 5% CO2 for stabilisation. Four-fold dilutions of the intended test concentration were added at time zero in 20 μl aliquots to the microtiter plate wells. Usually, test compound was evaluated at six 4-fold dilutions. In routine testing, the highest well concentration was 166.7 μM, but it can be the matter of change dependent on the agent. All drug concentrations were examined in duplicates. Incubations of cells with the test compounds lasted for 72 hours at 37° C., in 5% CO2 atmosphere and 100% humidity. At the end of incubation period, the cells were assayed by using the Calcein AM. Ten microliters of the stock solution were pipetted into each well and incubated further for 1 hours. Fluorescence (FD) was measured with the Labsystem FIA Reader Fluoroscan Ascent (UK). The tumour cell survival (GI50) was calculated using the following equitation: GI50=(FDdrug exposed well/mean FDcontrol wells)×100%. The GI50 value, the drug concentration lethal to 50% of the tumour cells, was calculated from the obtained dose response curves (FIG. 3).

[2] = tested on: breast carcinoma cell lines MCF-7; experiment: In vitro cytotoxic activity, Calcein AM assay, MCF7; type: cell-based, human; conditions: 72 hours, read-out: IC 50 MCF7
From the text: as §1, §2, §3

mouse fibroblasts NIH3T3 = experiment: In vitro cytotoxic activity, Calcein AM assay, NIH-3T3; type: cell-based; conditions: 72 hours, read-out: IC 50 NIH-3T3
From the text: as §1, §2, §3

[3] = tested on: Human T-lymphoblastic leukemia cell line CEM; experiment: In vitro cytotoxic activity, Calcein AM assay, CEM; type: cell-based; conditions: 72 hours
From the text: as §1, §2, §3

promyelocytic HL-60 = experiment: In vitro cytotoxic activity, Calcein AM assay, HL60; type: cell-based, human; conditions: 72 hours, read-out: IC 50 HL60
From the text: as §1, §2, §3

[4] = tested on: Triticum aestivum cv. Hereward; experiment: Senescence inhibition on winter wheat leaf segments (chlorophyll retention); type: in vivo; conditions: for Concentration with highest activity: chlorophyll retention in excised wheat leaf tips, 96 h dark; for Activity (%) [10^−4 mol · l^−1 BAP = 100%]: chlorophyll retention, at concentration with highest activity
Method: Seeds of winter wheat, Triticum aestivum cv. Hereward, were washed under running water for 24 hours and then sown on vermiculite soaked with Knop's solution. They were placed in the grown chamber at 15° C. with a 16/8 h light period at 50 μmol·m^−2·s^−1. After 7 days, the first leaf was fully developed and the second leaf had started to grow. A tip section of the first leaf, approximately 35 mm long, was removed from 5 seedlings and trimmed slightly to a combined weight of 100 mg. The basal ends of the five leaf tips were placed in the wells of a microtiter polystyrene plate containing 150 μl of a cytokinin solution each. The entire plate was inserted into a plastic box lined with paper tissues soaked in distilled water to prevent leaf sections from drying out. After a 96 h incubation in the dark at 25° C., the leaves were removed and chlorophyll extracted by heating at 80° C. for 10 min in 5 ml of 80% ethanol (v/v). The sample volume was then restored to 5 ml by the addition of 80% ethanol (v/v). The absorbency of the extract was recorded at 665 nm. In addition, chlorophyll extracts from fresh leaves and leaf tips incubated in deionised water were measured. From the obtained data, the concentration with highest activity was selected for each compound tested. Relative activity of the compound at this concentration was calculated (Tab. 10). The activity obtained for 10^−4 M 6-benzylaminopurine (BAP) was postulated as 100%. The values shown are means of five replicates and the whole experiment was repeated twice. The cytokinins to be tested were dissolved in dimethylsulfoxide (DMSO) and the solution brought up to 10^−3M with distilled water. This stock was further diluted in distilled water to concentrations ranging from 10^−8M to 10^−4M.

[5] = tested on: Amaranthus caudatus cotyledon/hypocotyl explants; experiment: Amaranthus bioassay (betacyanin content); type: in vivo; conditions: for Concentration with highest activity: 48 h dark; for Activity (%) [10^−5 mol · l^−1 BAP = 100%]: at concentration with highest activity
Method: Standard Amaranthus bioassay was performed with several modifications. The seeds of Amaranthus caudatus var. atropurpurea were surface-sterilised in 10% N-chlorobenzenesulfonamide (w/v) for 10 min and washed 5 times in deionized water. They were placed in 15 cm Petri dishes containing paper tissues saturated with deionized water. After 72 h of cultivation at 25° C. in darkness, the roots of the seedlings were cut off. The explants, consisting of two cotyledons and hypocotyls, were placed in 5 cm Petri dishes on two layers of filter paper soaked in 1 ml of incubation medium containing 10 μmol NA2HPO4-KH2PO4, pH 6.8, 5 μmol tyrosine and the cytokinin to be tested. There were 20 explants per dish. The procedure was carried out under a green safe light in a darkroom. After a 48 h of incubation at 25° C. in darkness, betacyanin was extracted by freezing the explants in 4 ml […] acetic acid. The concentration of betacyanin was determined by comparing the absorbance at 537 nm and 620 nm as follows: ΔA=[…]-[…]. From the obtained data, the concentration with highest activity was selected for each compound tested. Relative activity of the compound at this concentration was calculated (Tab. 12). […] The values shown in table 8 are means of five replicates and the entire test was repeated twice. The cytokinins to be tested were dissolved in dimethylsulfoxide (DMSO) and the solution brought up to 10^-3M with distilled water. This stock was further diluted in the respective media used for the biotest to concentrations ranging from 10^-8M to 10^-4M. […] From the data obtained (FIG. 14) the maximum effective concentration of the tested compound was calculated as well as its relative effectiveness at this concentration (Table 12). […]

[6] = tested on: tobacco callus Nicotiana tabacum L. cv. Wisconsin 38; experiment: Growth of cytokinin-dependent tobacco callus; type: cell-based; conditions: for Activity (%) [10^−5 mol · l^−1 BAP = 100%]: callus growth, at concentration with highest activity; for Concentration with highest activity: fresh callus weight after four weeks
Method: Cytokinin-dependent tobacco callus Nicotiana tabacum L. cv. Wisconsin 38 was maintained at 25° C. in darkness on modified Murashige-Skoog medium, containing per 1 liter: 4 μmol nicotinic acid, 2.4 μmol pyridoxine hydrochloride, 1.2 μmol thiamine, 26.6 μmol glycine, 1.37 μmol glutamine, 1.8 μmol myo-inositol, 30 g of sucrose, 8 g of agar, 5.37 μmol α-naphtylacetic acid (NAA) and 0.5 μmol benzylaminopurine (BAP). Subcultivation was carried out every three weeks. Fourteen days before the bioassay, the callus tissue was transferred to the media without 6-benzylaminopurine (BAP). Biological activity was determined from the increase in fresh callus weight after four weeks of cultivation. Five replicates were prepared for each cytokinin concentration and the entire test was repeated twice. From the obtained data, the concentration with highest activity was selected for each compound tested. Relative activity of the compound at this concentration was calculated (Tab. 6). […] The cytokinins to be tested were dissolved in dimethylsulfoxide (DMSO) and the solution brought up to 10^−3M with distilled water. This stock was further diluted in the respective media used for the biotest to concentrations ranging from 10^−8M to 10^−4M.

Compound	pIC50 (HOS)	pIC50 [1]	pIC50 [2]	pIC50 (mouse fibroblasts NIH3T3)	pIC50 [3]	pIC50 (promyelocytic HL-60)	Concentration with highest activity [4]	Activity (%) [10^−4 mol · l^−1 BAP = 100%] [4] [%]	Concentration with highest activity [5]	Activity (%) [10^−5 mol · l^−1 BAP = 100%] [5] [%]	Activity (%) [10^−5 mol · l^−1 BAP = 100%] [6] [%]	Concentration with highest activity [6]
OC[C@H]1O[C@@H](n2cnc3c(NCc4ccc(F)cc4F)ncnc32)[C@H](O)[C@@H]1O [2,4-difluorobenzylamino, 6-(2,4-difluorobenzylamino)purine riboside]	< 3.78	5.13	< 3.78	< 3.78	5.15	5.47	10^−4 mol · l^−1	171 ± 8	10^−4 mol · l^−1	88 ± 7		
OC[C@H]1O[C@@H](n2cnc3c(NCc4ccc(F)c(Cl)c4)ncnc32)[C@H](O)[C@@H]1O [3-chloro-4-fluorobenzylamino, 6-(3-chloro-4-fluorobenzylamino)purine riboside]	< 3.78	5.39	< 3.78	< 3.78	5.47	5.46	10^−4 mol · l^−1	156 ± 10	10^−4 mol · l^−1	82 ± 5	87 ± 4	10^−6 mol · l^−1
OC[C@H]1O[C@@H](n2cnc3c(NCc4ccc(Br)cc4)ncnc32)[C@H](O)[C@@H]1O [4-bromobenzylamino, 6-(4-bromobenzylamino)purine riboside]	< 3.78	4.17	< 3.78	< 3.78	4.69	4.32	10^−4 mol · l^−1	76 ± 11	10^−5 mol · l^−1	30 ± 8	15 ± 11	10^−6 mol · l^−1
COc1ccc(CNc2ncnc3c2ncn3[C@@H]2O[C@H](CO)[C@@H](O)[C@H]2O)cc1O [3-hydroxy-4-methoxybenzylamino, 6-(3-hydroxy-4-methoxybenzylamino)purine riboside]	< 3.78	< 3.78	< 3.78	< 3.78	< 3.78	< 3.78	10^−4 mol · l^−1	22 ± 5	10^−4 mol · l^−1	0		
OC[C@H]1O[C@@H](n2cnc3c(NCc4ccc(Cl)cc4Cl)ncnc32)[C@H](O)[C@@H]1O [2,4-dichlorobenzylamino, 6-(2,4-dichlorobenzylamino)purine riboside]	< 3.78	4.07	3.90	< 3.78	4.06	4.02	10^−5 mol · l^−1	5 ± 1	10^−4 mol · l^−1	3 ± 2		
OC[C@H]1O[C@@H](n2cnc3c(NCc4cc(F)c(F)cc4F)ncnc32)[C@H](O)[C@@H]1O [2,4,5-trifluorobenzylamino, 6-(2,4,5-trifluorobenzylamino)purine riboside]									10^−4 mol · l^−1	120 ± 1	95 ± 3	10^−5 mol · l^−1
OC[C@H]1O[C@@H](n2cnc3c(NCc4cccc(I)c4)ncnc32)[C@H](O)[C@@H]1O [3-jodobenzylamino, 6-(3-iodobenzylamino)purine riboside]							10^−4 mol · l^−1	98 ± 4	10^−5 mol · l^−1	102 ± 18	47 ± 12	10^−6 mol · l^−1
OC[C@H]1O[C@@H](n2cnc3c(NCc4ccc(F)cc4Cl)ncnc32)[C@H](O)[C@@H]1O [2-chloro-4-fluorobenzylamino, 6-(2-chloro-4-fluorobenzylamino)purine riboside]	< 3.78	4.93	< 3.78	< 3.78	4.68	5.05			10^−4 mol · l^−1	115 ± 1	98 ± 4	10^−5 mol · l^−1
OC[C@H]1O[C@@H](n2cnc3c(NCc4c(F)ccc(F)c4F)ncnc32)[C@H](O)[C@@H]1O [2,3,6-trifluorobenzylamino, 6-(2,3,6-trifluorobenzylamino)purine riboside]	< 3.78	< 3.78	< 3.78	< 3.78		4.89	10^−4 mol · l^−1	133 ± 14	10^−4 mol · l^−1	94 ± 1	92 ± 2	10^−5 mol · l^−1
